From US9580411B2, “Substituted sulfonamide compounds” (Hoffmann-La Roche Inc., priority 2012, dated 2017) come the findings set out here.

Chain of hTRPA1 (O75762 whole entry): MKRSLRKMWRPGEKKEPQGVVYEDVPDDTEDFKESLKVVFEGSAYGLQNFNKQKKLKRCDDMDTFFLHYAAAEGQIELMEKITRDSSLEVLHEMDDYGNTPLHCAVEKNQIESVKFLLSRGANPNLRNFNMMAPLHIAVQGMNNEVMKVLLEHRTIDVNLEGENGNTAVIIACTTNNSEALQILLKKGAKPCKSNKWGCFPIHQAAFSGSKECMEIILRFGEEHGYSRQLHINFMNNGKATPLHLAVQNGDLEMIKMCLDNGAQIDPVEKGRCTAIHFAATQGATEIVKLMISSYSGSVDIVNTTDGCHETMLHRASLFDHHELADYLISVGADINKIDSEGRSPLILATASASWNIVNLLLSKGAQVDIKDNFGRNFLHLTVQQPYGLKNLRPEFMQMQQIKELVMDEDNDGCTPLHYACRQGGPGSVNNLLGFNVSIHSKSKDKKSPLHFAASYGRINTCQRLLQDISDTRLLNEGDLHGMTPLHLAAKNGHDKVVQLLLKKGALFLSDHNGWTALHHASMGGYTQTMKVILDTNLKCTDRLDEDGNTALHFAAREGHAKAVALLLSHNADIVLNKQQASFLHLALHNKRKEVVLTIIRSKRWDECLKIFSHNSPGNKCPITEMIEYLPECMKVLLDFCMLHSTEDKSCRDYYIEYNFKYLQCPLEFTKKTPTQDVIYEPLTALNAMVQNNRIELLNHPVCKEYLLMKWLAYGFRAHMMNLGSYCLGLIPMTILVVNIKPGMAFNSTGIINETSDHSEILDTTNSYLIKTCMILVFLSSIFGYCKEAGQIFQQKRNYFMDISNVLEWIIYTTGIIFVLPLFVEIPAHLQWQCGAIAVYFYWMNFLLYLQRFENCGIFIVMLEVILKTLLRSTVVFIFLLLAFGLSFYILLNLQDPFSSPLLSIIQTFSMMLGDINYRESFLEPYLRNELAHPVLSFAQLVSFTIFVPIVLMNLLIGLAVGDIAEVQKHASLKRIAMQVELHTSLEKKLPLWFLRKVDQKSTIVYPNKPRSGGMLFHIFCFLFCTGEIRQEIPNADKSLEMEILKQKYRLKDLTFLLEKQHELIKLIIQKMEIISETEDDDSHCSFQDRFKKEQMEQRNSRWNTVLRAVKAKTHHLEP

This test deals with hTRPA1 (Homo sapiens (Human), UniProt O75762). The test is described as follows: Dose response calcium flux assay (FLIPR), ChanTest hTRPA1-CHO stably transfected cell line. It is filed as cell-based. The conditions noted are these: CHO-K1 Tet-On human TRPA1 cells, cinnamaldehyde agonist (final 100 uM). The protocol:
IC50 Determinations of Exemplified Compounds Dose Response Assay: Chan Test hTRPA1-CHO Stably Transfected Cell Line
CHO-K1 Tet-On_HOMSA_TRPA1_Clone_20
Chinese Hamster Ovary cells, inducible expression
• Ham's F-12 with 10% tetracycline-free FBS • 1× penicillin-streptomycin • 1× glutamax • 0.01 mg/ml Blasticidin • 0.40 mg/ml Zeocin • The cell line doubling rate was ˜15 hours. […] Experiments were run at 24 hours post induction. Plating Conditions CHOK1/TRPA1 Cells: • Harvested cells with 0.025% trypsin/EDTA. • Resuspended cells in growth media without selection antibiotics. • Measured cell density and diluted to 2.4×10^5 cells/ml in media containing 1 ug/ml Doxycycline Plate 25 ul/well into 384 well black/clear tissue culture-treated plates. • Incubated overnight at 37° C. Calcium Flux Assay: Day of Assay: Reagents: • Replacement Buffer: Hank's Balanced Salt Solution, 20 mM HEPES along with 0.005% BSA and 2× Probenecid • Dye Loading Buffer: Cal-3 NW Calcium dye was prepared by dissolving the contents of one vial with […] Hank's Balanced Salt Solution containing 20 mM HEPES. • Control compounds for CHOK1/TRPA1 cells: AP-18, stock 10 mM, prepare 3.5× compound dilution in a Compound Buffer (HBSS/20 mM HEPES/0.005% BSA)—final concentration 10 uM. • Preparation of Cinnamaldehyde (agonist addition): FW=132.16 • Specific gravity=1.046 gm/cc • 1.32 gm/1.046 gm/cc=1.26 ml of stock • Add 1.74 ml DMSO=3.3 M stock • Working solution 4.5× (final 100 uM in Compound Buffer: HBSS/20 mM HEPES/0.005% BSA) • Compounds dilutions were prepared from 5 or 10 mM stock (100% DMSO): • Adjustments of volumes and concentrations were made at time of titration to reflect desired final assay concentrations. • Compounds were tested at either 20 μM three folds dilution 11 steps out or 30 μM two folds dilution 11 steps out. • 3 μl of diluted compound were transferred into Weidmann 384-well plate in duplicates side-by-side. • Compound plates were resuspended with 100 ul of HBSS/20 mM HEPES/0.005% BSA buffer (Compound Buffer): • column 1A-H: buffer/DMSO (bk) • column 2A-H: AP-18 (control antagonist for CHOK1 TRPA1 cells) • column 1I-P: ATP (control for CHOK1 teton cells) • column 2 I-P: 2APB (control antagonist for CHOK1/TRPM8 cells). Growth media was removed from the cell plates (20 ul) and 20 ul of the Replacement Buffer was added followed by addition of 25 ul of diluted dye. All three steps were performed using a Plate Washer BioTek 407. The plates were then incubated for 30′ at RT.
After incubation, both the cell and compound plates were brought to the FLIPR and 20 ul of the diluted compounds/antagonist/bk were transferred to the cell plates by the FLIPR. Plates were then incubated for 30′ at room temperature. After 30′ incubation, plates were returned to the FLIPR and 20 ul of 4.5× Cinnamaldehyde was added to the cell plates. During the compound addition as well as agonist addition, fluorescence readings were taken simultaneously from all 384 wells of the cell plate every 1.5 seconds. Five readings were taken to establish a stable baseline, then 20 ul of sample was rapidly (30 ul/sec) and simultaneously added to each well of the cell plate. The fluorescence was continuously monitored before, during and after sample/agonist addition for a total elapsed time of 100 seconds (compound addition) and 120 seconds (agonist addition). Responses (increase in peak fluorescence) in each well following agonist addition was determined. The initial fluorescence reading from each well, prior to ligand stimulation, was used a zero baseline value for the data from that well.
Take `CC(C)N(CC(=O)NCc1cc(-c2ccc(C(F)(F)F)cc2)ncn1)S(=O)(=O)c1cnccn1` [Example 67, 2-[Isopropyl-(pyrazine-2-sulfonyl)-amino]-N-[6-(4-trifluoromethyl-phenyl)-pyrimidin-4-ylmethyl]-acetamide]: the IC50 came to 380 nM.
With `CC(C)[C@@H](C(=O)NCc1cccc(-c2ccc(C(F)(F)F)cc2)c1)N(C)S(=O)(=O)c1ccc(F)cc1` [Example 5, (S)-2-[(4-Fluoro-benzenesulfonyl)-methyl-amino]-3-methyl-N-(4′-trifluoromethyl-biphenyl-3-ylmethyl)-butyramide], the IC50 was found to be 1620 nM.
Next, `CC(C)N(CC(=O)NCc1cc(-c2ccc(C(F)(F)F)cc2)ncn1)S(=O)(=O)c1cccc(F)c1` [Example 49, 2-[(3-Fluoro-benzenesulfonyl)-isopropyl-amino]-N-[6-(4-trifluoromethyl-phenyl)-pyrimidin-4-ylmethyl]-acetamide]: 70 nM; `CC(C)N(CC(=O)NCc1cc(-c2ccc(C(F)(F)F)cc2)ncn1)S(=O)(=O)c1ccc(F)cc1` [Example 27, 2-[(4-Fluoro-benzenesulfonyl)-isopropyl-amino]-N-[6-(4-trifluoromethyl-phenyl)-pyrimidin-4-ylmethyl]-acetamide]: 52 nM.
Next, `CC(C)(C)N(CC(=O)NCc1cc(-c2ccc(C(F)(F)F)cc2)ncn1)S(=O)(=O)c1ccc(F)cc1` [Example 31, 2-[tert-Butyl-(4-fluoro-benzenesulfonyl)-amino]-N-[6-(4-trifluoromethyl-phenyl)-pyrimidin-4-ylmethyl]-acetamide]: 380 nM.
As for `CCN(CC(=O)NCc1cc(-c2ccc(C(F)(F)F)cc2)ncn1)S(=O)(=O)c1ccc(F)cc1` [Example 28, 2-[Ethyl-(4-fluoro-benzenesulfonyl)-amino]-N-[6-(4-trifluoromethyl-phenyl)-pyrimidin-4-ylmethyl]-acetamide], the figure is 33 nM.
On to `CCN(CC(=O)NCc1cccc(-c2ccc(C(F)(F)F)cn2)c1)S(=O)(=O)c1ccc(F)cc1` [Example 42, 2-[Ethyl-(4-fluoro-benzenesulfonyl)-amino]-N-[3-(5-trifluoromethyl-pyridin-2-yl)-benzyl]-acetamide], for which the IC50 stood at 84 nM.
Regarding `CCN(CC(=O)NCc1cc(-c2ccc(C(F)(F)F)cc2)ccc1F)S(=O)(=O)c1ccc(F)cc1` [Example 16, 2-[Ethyl-(4-fluoro-benzenesulfonyl)-amino]-N-(4-fluoro-4′-trifluoromethyl-biphenyl-3-ylmethyl)-acetamide], the IC50 came out at 24 nM.
As for `COc1cc(CNC(=O)CN(C)S(=O)(=O)c2ccc(F)cc2)cc(-c2ccc(C(F)(F)F)cc2)c1` [Example 43, 2-[(4-Fluoro-benzenesulfonyl)-methyl-amino]-N-(5-methoxy-4′-trifluoromethyl-biphenyl-3-ylmethyl)-acetamide], the figure is 380 nM; as for `CN(CC(=O)NCc1cc(-c2ccc(C(F)(F)F)cc2)ncn1)S(=O)(=O)c1cccs1` [Example 26, 2-[methyl-(thiophene-2-sulfonyl)-amino]-N-[6-(4-trifluoromethyl-phenyl)-pyrimidin-4-ylmethyl]-acetamide], 340 nM.
Next, `CC(C)N(CC(=O)NCc1cccc(-c2ccc(C(F)(F)F)cn2)c1)S(=O)(=O)c1ccc(F)cc1` [Example 40, 2-[(4-Fluoro-benzenesulfonyl)-isopropyl-amino]-N-[3-(5-trifluoromethyl-pyridin-2-yl)-benzyl]-acetamide]: 67 nM.
In the case of `COCCN(CC(=O)NCc1cc(-c2ccc(C(F)(F)F)cc2)ncn1)S(=O)(=O)c1ccc(F)cc1` [Example 29, 2-[(4-Fluoro-benzenesulfonyl)-(2-methoxy-ethyl)-amino]-N-[6-(4-trifluoromethyl-phenyl)-pyrimidin-4-ylmethyl]-acetamide], the IC50 is 470 nM.
Regarding `CC(C)N(CC(=O)NCc1cccc(-c2cnc(C(F)(F)F)cn2)c1)S(=O)(=O)c1ccc(F)cc1` [Example 71, 2-[(4-Fluoro-benzenesulfonyl)-isopropyl-amino]-N-[3-(5-trifluoromethyl-pyrazin-2-yl)-benzyl]-acetamide], the IC50 came to 79 nM.
Take `CC(C)N(CC(=O)NCc1cc(F)cc(-c2ccc(C(F)(F)F)cc2)c1)S(=O)(=O)c1ccc(F)cc1` [Example 36, 2-[(4-Fluoro-benzenesulfonyl)-isopropyl-amino]-N-(5-fluoro-4′-trifluoromethyl-biphenyl-3-ylmethyl)-acetamide]: the IC50 came to 12 nM.
Turning to `CN(CC(=O)NCc1ccc(F)c(-c2ccc(C(F)(F)F)cc2)c1)S(=O)(=O)c1ccc(F)cc1` [Example 8, 2-[(4-Fluoro-benzenesulfonyl)-methyl-amino]-N-(6-fluoro-4′-trifluoromethyl-biphenyl-3-ylmethyl)-acetamide], the half-inhibitory concentration (IC50) was 150 nM.
Next, `CN(CC(=O)NCc1cc(F)cc(-c2ccc(C(F)(F)F)cc2)c1)S(=O)(=O)c1ccc(F)cc1` [Example 11, 2-[(4-Fluoro-benzenesulfonyl)-methyl-amino]-N-(5-fluoro-4′-trifluoromethyl-biphenyl-3-ylmethyl)-acetamide]: 130 nM; `CCN(CC(=O)NCc1cccc(-c2ccc(C(F)(F)F)cc2)c1)S(=O)(=O)c1ccc(F)cc1` [Example 23, 2-[Ethyl-(4-fluoro-benzenesulfonyl)-amino]-N-(4′-trifluoromethyl-biphenyl-3-ylmethyl)-acetamide]: 29 nM; `CC(C)N(CC(=O)NCc1cccc(-c2cnc(C(F)(F)F)nc2)c1)S(=O)(=O)c1ccc(F)cc1` [Example 68, 2-[(4-Fluoro-benzenesulfonyl)-isopropyl-amino]-N-[3-(2-trifluoromethyl-pyrimidin-5-yl)-benzyl]-acetamide]: 47 nM.
As for `O=C(NCc1cccc(-c2ccc(C(F)(F)F)cc2)c1)C(NS(=O)(=O)c1ccc(F)cc1)C1CC1` (stereo not drawn) [Example 24, 2-cyclopropyl-2-(4-fluoro-benzenesulfonylamino)-N-(4′-trifluoromethyl-biphenyl-3-ylmethyl)-acetamide], the figure is 1030 nM.
As for `COC[C@@H](C(=O)NCc1cccc(-c2ccc(C(F)(F)F)cc2)c1)N(C)S(=O)(=O)c1ccc(F)cc1` [Example 52, (S)-2-[(4-Fluoro-benzenesulfonyl)-methyl-amino]-3-methoxy-N-(4′-trifluoromethyl-biphenyl-3-ylmethyl)-propionamide], the figure is 98 nM.
As to `CN(CC(=O)NCc1cc(-c2ccc(C(F)(F)F)cc2)ncn1)S(=O)(=O)c1ccc(F)cc1` [Example 21, 2-[(4-Fluoro-benzenesulfonyl)-methyl-amino]-N-[6-(4-trifluoromethyl-phenyl)-pyrimidin-4-ylmethyl]-acetamide], the IC50 was 97 nM.
As for `CC(O)CN(CC(=O)NCc1cccc(-c2ccc(C(F)(F)F)cc2)c1)S(=O)(=O)c1ccc(F)cc1` (stereo not drawn) [Example 20, 2-[(4-Fluoro-benzenesulfonyl)-(2-hydroxy-propyl)-amino]-N-(4′-trifluoromethyl-biphenyl-3-ylmethyl)-acetamide], the figure is 160 nM; as for `COc1ccc(CNC(=O)CN(C(C)C)S(=O)(=O)c2ccc(F)cc2)cc1-c1ccc(C(F)(F)F)cc1` [Example 47, 2-[(4-Fluoro-benzenesulfonyl)-isopropyl-amino]-N-(6-methoxy-4′-trifluoromethyl-biphenyl-3-ylmethyl)-acetamide], 41 nM.
As for `CC(C)N(CC(=O)NCc1cc(-c2ccc(C(F)(F)F)cc2)ccc1F)S(=O)(=O)c1ccc(F)cc1` [Example 37, 2-[(4-Fluoro-benzenesulfonyl)-isopropyl-amino]-N-(4-fluoro-4′-trifluoromethyl-biphenyl-3-ylmethyl)-acetamide], the figure is 14 nM.
